Laboratory results: patent publication US7833964B2, “Methods of reducing visceral fat by increasing levels of insulin-like growth factor-I (IGF-I)” (Tercica, Inc., priority 2003, dated 2010)
Where “and” joins values, the source holds several entries; their conditions need not be identical. Equal entries are not always repeated. Each block holds one compound with its values, some of them ahead of it.

Tests used:
Format in all cases: in vivo, human
[1] = ETDRS retinopathy score by fundus photography
Description: Because concern existed regarding the effects of rhIGF-I on two types of ocular findings—progression of diabetic retinopathy and optic disc swelling—the occurrence of such findings was recorded as a measure of safety. An ophthalmologic visit for dilated funduscopic examination was performed during the screening period. Additionally, fundus photography was performed on each subject prior to initiation of treatment with rhIGF-I or placebo between day 7 and day 1. When optic disc swelling was detected on the initial baseline photograph, the subject was terminated from the study immediately. If the baseline photograph was scored at an Early Treatment Diabetic Retinopathy Study (ETDRS) scale of greater than 35 in either eye, the subject was also not allowed to progress further in the study.
Both the ophthalmologic examination and fundus photography were repeated at the completion of the treatment period or at the early termination visit in the event of premature termination. The ophthalmologic exam was performed within 3 days of the fundus photography. In the event that optic disc swelling was detected on the fundus photograph obtained at the week 12 or early termination visits, subjects were asked to return for repeat fundus photography at 1-3 months following discontinuation from the study, and again at 3-month intervals until the optic disc swelling resolved.
Fundus photographs, obtained for each subject at week 12 or at the early termination visit, were compared with the photographs obtained prior to treatment in order to evaluate the development of retinopathy during the course of the study. The photographs for each eye were graded using the final version of the ETDRS scale. The resulting scores for each eye were combined to yield the ETDRS person score. A change between day 1 and week 12 (or early termination) in the full scale ETDRS person score of three or more levels (5 units) was recorded as a progression of retinopathy and as an adverse event.
A change in ETDRS level was the maximum difference between baseline and on-study or post-treatment values. A negative change indicated improvement.

hemoglobin A1c (HbA1c) = assay: Glucose control: change from baseline in HbA1c, double-blind placebo-controlled study in type II DM; details: for Hemoglobin A1c Endpoint Change % from baseline, Mean (SD): last available measurement carried forward; for Hemoglobin A1c Change % from baseline, Week 4, Mean (SD): type II DM subjects
Description: Accordingly, subjects with type II DM were treated with a combination of rhIGF-I and glyburide, or with rhIGF-I or glyburide alone, to ascertain the potential benefits of the addition of rh1GF-I to glyburide therapy on glycemic control, incidence of hypoglycemia, and weight gain. […] The use of any additional orally administered drug or insulin to treat hyperglycemia during the pretreatment and treatment periods was prohibited. […] Randomization was stratified by gender, by prior oral […] agent therapy, and by HbA1c level at day 14.

[2] = Mid-thigh CT scan: thigh adipose tissue (TAT)
Description: All CT scans were performed on GE Sytec 4000 CT scanners or an equivalent scanner.
An initial Thigh Scan was performed using the following procedure: • 1. The subject lay on the CT bed with his or her feet toward the scanner. The subject's knees were at least 3 inches above the extended bed joint, not over the joint. • 2. The legs were positioned so they were not touching each other and the hands were crossed over the abdomen so as not to interfere with the scan. • 3. The CT technician then positioned the bed. The entire femur was visualized in the initial topogram. • 4. The technician then made a topogram of the entire femur of the non-dominant leg and recorded this picture on the film. The length of the femur was then measured and recorded and this measurement was used to identify the midpoint of the femur. This midpoint was used to assess the cross section of the thigh. • 5. The technician took a 10-mm slice at the precise level of the mid-point of the femur with the following settings for a GE Sytec 4000 scanner: • kV=100 • MA=170 • 1 sec • DFOV=21 • Algorithm=standard
Technicians were advised that although settings for some scanners may be slightly different, the settings must be standardized so as to give the greatest definition for fat and lean tissue. Once the technician determined the appropriate setting for a scanner, he or she was advised to use the same settings for every (slice) scan. The topograms could be at different settings as the topograms would not be imaged. • 6. The entire cross section of the nondominant thigh was visualized on the screen. If the entire thigh was not visualized on the screen, the picture was reconfigured with a larger display field of view. Once the entire thigh was visualized on the screen, the technician downloaded the cross section to the disk. The disk was checked to make sure the image was actually there, and then the picture was recorded on film. • 7. The exam number, series number, and image number of the slice was then recorded. • 8. The technician sent the film to the printer at this point. The film was set at four pictures per film, and the film had for the femur the recorded total distance, the midpoint, and the slice of the thigh.
The same leg (left) was used as in the initial scan. A topogram of the thigh was taken, and a measurement made down the femur to the midpoint of the femur using the same distance as was used in the baseline thigh scan. A 10-mm cross section scan was taken at the midpoint using the identical settings as were used for the baseline scan. A record was made of the exam number, series number, and image number of the slice.
Slices were downloaded onto the scanner and then retrieved via optical disk (or the Internet if possible) to a computer for analysis. During analysis, the area of intra-abdominal and subcutaneous fat as well as oblique, psoas, quadratum laborum, and sacrospinalis muscles were measured. The images were digitized by optical density to separate bone, muscle, and fat compartments using a modified version of the NIH IMAGE program. Pixel units were converted to area measurements using an internal calibration standard. Digitized images were analyzed in a blinded fashion. The coefficient of variation of repeated analysis of a single scan is <1.5%.

[3] = glyburide 10 mg BID + rhIGF-I placebo (n = 29)
[4] = glyburide 10 mg BID + rhIGF-I placebo
[5] = IGF-I 20 μg/kg BID, with glyburide (n = 36) or glyburide placebo (n = 35)
[6] = IGF-I 40 μg/kg BID, with glyburide (n = 36) or glyburide placebo (n = 33)
[7] = rhIGF-I 20 μg/kg BID SC, with glyburide 10 mg BID or glyburide placebo per label
[8] = rhIGF-I 40 μg/kg BID SC, with glyburide 10 mg BID or glyburide placebo per label
[9] = IGF-I 20 μg/kg, with glyburide or glyburide placebo per label
[10] = IGF-I 40 μg/kg, with glyburide or glyburide placebo per label

subjects showing an improvement in retinal score ([1]; Placebo/glyburide group): one
Change in ETDRS levels: 1- to 2-step Progression [1, 3]: 8 (28) n (%)
Change in ETDRS levels: No change [1, 3]: 19 (66) n (%)
Change in ETDRS levels: −1- to −2-step progression (negative change = improvement) [1, 3]: 1 (3) n (%)
Change in ETDRS levels: ≧3-step progression [1, 3]: 1 (3) n (%)
Compound: COc1ccc(Cl)cc1C(=O)NCCc1ccc(S(=O)(=O)NC(=O)NC2CCCCC2)cc1 [Glyburide, glyburide, reference compound]
Hemoglobin A1c Change % from baseline, Week 8, Mean (SD) (hemoglobin A1c (HbA1c); [4]): 0.05 (0.7) %
Hemoglobin A1c Change % from baseline, Week 12, Mean (SD) (hemoglobin A1c (HbA1c); [4]): 0.32% and 0.32 (0.7) %
Hemoglobin A1c Endpoint Change % from baseline, Mean (SD) (hemoglobin A1c (HbA1c); [4]): 0.12 (0.8) %
Hemoglobin A1c Change % from baseline, Week 4, Mean (SD) (hemoglobin A1c (HbA1c); [4]): −0.13 (0.5) %
Change in TAT (%), mean (SEM) ([2]; glyburide active + IGF-I placebo): 2.5 (2.0) %
Change in TAT, mean (SEM) ([2]; glyburide active + IGF-I placebo, thigh CT, change from baseline): 1.0 (1.6) sq cm

Compound: IGF-I: recombinant human insulin-like growth factor-I from Genentech; sterile benzyl alcohol-preserved solution, 70 mg in 7 mL acetate/NaCl, pH 5.4; given SC
Change in ETDRS levels: 1- to 2-step Progression [1, 5]: 4 (11) n (%)
Change in ETDRS levels: No change [1, 5]: 24 (69) n (%)
Change in ETDRS levels: −1- to −2-step progression (negative change = improvement) [1, 5]: 6 (17) n (%)
Change in ETDRS levels: ≧3-step progression [1, 5]: 1 (3) n (%)
subjects showing an improvement in retinal score ([1]; IGF-I 20 μg/kg BID, with glyburide or placebo per label): 6 subjects
Change in ETDRS levels: 1- to 2-step Progression [1, 6]: 7 (21) n (%)
Change in ETDRS levels: No change [1, 6]: 20 (61) n (%)
Change in ETDRS levels: −1- to −2-step progression (negative change = improvement) [1, 6]: 5 (15) n (%)
Change in ETDRS levels: ≧3-step progression [1, 6]: 0 n (%)
subjects showing an improvement in retinal score ([1]; IGF-I 40 μg/kg BID, with glyburide or placebo per label): 5 subjects
progression of retinopathy (increases in the ETDRS scores) ([1]; IGF-I 20 or 40 μg/kg BID, 12 weeks, type II DM subjects): did not cause a progression of retinopathy
Hemoglobin A1c Change % from baseline, Week 8, Mean (SD) (hemoglobin A1c (HbA1c); [7]): −0.29 (0.8) %
Hemoglobin A1c Change % from baseline, Week 12, Mean (SD) (hemoglobin A1c (HbA1c); [7]): 0.13 (1.2) %
Hemoglobin A1c Change % from baseline, Week 4, Mean (SD) (hemoglobin A1c (HbA1c); [7]): −0.10 (0.6) %
Hemoglobin A1c Endpoint Change % from baseline, Mean (SD) (hemoglobin A1c (HbA1c); rhIGF-I 20 μg/kg BID SC, with glyburide 10 mg BID or placebo per label): 0.04 (0.9) %
Hemoglobin A1c Change % from baseline, Week 8, Mean (SD) (hemoglobin A1c (HbA1c); [8]): −0.47 (0.9) %
Hemoglobin A1c Change % from baseline, Week 12, Mean (SD) (hemoglobin A1c (HbA1c); [8]): −0.58% and −0.58 (1.2) %
Hemoglobin A1c Change % from baseline, Week 4, Mean (SD) (hemoglobin A1c (HbA1c); [8]): −0.37 (0.5) %
Hemoglobin A1c Endpoint Change % from baseline, Mean (SD) (hemoglobin A1c (HbA1c); rhIGF-I 40 μg/kg BID SC, with glyburide 10 mg BID or placebo per label): −0.30 (0.8) %
Change in TAT (%), mean (SEM) [2, 9]: −1.4 (3.7) %
Change in TAT, mean (SEM) [2, 9]: −1.2 (2.8) sq cm
Change in TAT (%), mean (SEM) [2, 10]: 3.9 (4.3) %
Change in TAT, mean (SEM) [2, 10]: 0.3 (4.3) sq cm
